Test results reported in patent US5340800A, “Peptide medicaments for the treatment of disease” (priority 1992, dated 1994).
Several values for one entry are separate records, joined by “and”; a condition that tells them apart may be missing. Equal entries are not always repeated. Where two headings read alike, the source gives them in different places. No end group written: not given here.

Assays:
[1] = system: polymorphonuclear leukocyte adhesion to TNF activated endothelial cells; type: cell-based, human; settings: for Average % Change of PMN Adhesion to TNF Activated ECs: average over PMN donors (# donors in parentheses)
Procedure, shortened: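 Human leukocytes were isolated on Ficoll-Hypaque and labelled for 15 min with 111In-oxide or 51Cr. They were added to TNF-activated HUVEC monolayers (≤5th passage, fibronectin-coated, washed with RPMI/1% FCS) for 30 min at 37 °C, 5% CO2. Adherent radioactivity was counted in quadruplicate, with basal binding to non-activated endothelium as control.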

[2] = system: polymorphonuclear leukocyte adhesion to endothelial cells activated with IL1; type: cell-based, human

**Q.** With “IGWRNVTRLLVFATDDGFHFAGDGKLGAI [Peptide 4-29, NH2 --Ile--Gly--Trp--Arg--Asn--Val--Thr--Arg--Leu--Leu--Val--Phe--Ala--Thr--Asp--Asp--Gly--Phe--His--Phe--Ala--Gly--Asp--Gly--Lys--Leu--Gly--Ala--Ile--COOH]” as the sequence, how does the “activity of the peptide after storage for different times at 4° C.” value [1] read?
**A.** maintained

**Q.** And the “concentration of peak inhibitory activity in the PMN adhesion assay” value [1]?
**A.** 10^-5 to 10^-6 M and 10^-5 M

**Q.** What about the “inhibitory activity in the PMN adhesion assay (in words)” value [1] of the same sequence?
**A.** significant inhibitory activity

**Q.** And the “Average % Change of PMN Adhesion to TNF Activated ECs” value (“Average % Change of PMN Adhesion” below) ([1]; 10^-4 M)?
**A.** -30%

**Q.** What about the “Percent Change in PMN Adhesion to TNF Activated ECs” value ([1]; 10^-4 M, donor 108, peptide frozen) of the same sequence?
**A.** -16%

**Q.** What about the “Percent Change in PMN Adhesion to TNF Activated ECs” value ([1]; 10^-4 M, donor 272, peptide fresh (second line of donor 272 fresh, last line of table)) of the same sequence?
**A.** +53%

**Q.** What about the “Average % Change of PMN Adhesion” value ([1]; 10^-5 M) of the same sequence?
**A.** -65%

**Q.** And the “Percent Change in PMN Adhesion to TNF Activated ECs” value ([1]; 10^-5 M, donor 108, peptide frozen)?
**A.** -63%

**Q.** And the “Average % Change of PMN Adhesion” value ([1]; 10^-6 M)?
**A.** -48%

**Q.** And the “Percent Change in PMN Adhesion to TNF Activated ECs” value ([1]; 10^-6 M, donor 100, peptide frozen)?
**A.** -68%

**Q.** What about the “Percent Change in PMN Adhesion to TNF Activated ECs” value ([1]; 10^-6 M, donor 272, peptide fresh (second line of donor 272 fresh, last line of table)) of the same sequence?
**A.** -41%

**Q.** And the “Percent Change in PMN Adhesion to TNF Activated ECs” value ([1]; 10^-6 M, donor 475, peptide fresh)?
**A.** -76%

**Q.** What about the “Average % Change of PMN Adhesion” value ([1]; 10^-7 M) of the same sequence?
**A.** +3%

**Q.** And the “Percent Change in PMN Adhesion to TNF Activated ECs” value ([1]; 10^-7 M, donor 121, peptide frozen)?
**A.** +3%

**Q.** What about the “Percent Change in PMN Adhesion to TNF Activated ECs” value ([1]; 10^-7 M, donor 155, peptide fresh) of the same sequence?
**A.** +1%

**Q.** And the “Percent Change in PMN Adhesion to TNF Activated ECs” value ([1]; 10^-7 M, donor 272, peptide fresh (second line of donor 272 fresh, last line of table))?
**A.** +42%

**Q.** What about the “Percent Change in PMN Adhesion to TNF Activated ECs” value ([1]; 10^-7 M, donor 323, peptide fresh, or 4° for 2 wks) of the same sequence?
**A.** +45%

**Q.** And the “Percent Change in PMN Adhesion to TNF Activated ECs” value ([1]; 10^-7 M, donor 593, peptide fresh, or 4° for 2 wks)?
**A.** +14%

**Q.** And the “Average % Change of PMN Adhesion” value ([1]; 10^-8 M)?
**A.** -12%

**Q.** And the “Percent Change in PMN Adhesion to TNF Activated ECs” value ([1]; 10^-8 M, donor 178, peptide fresh)?
**A.** +2%

**Q.** What about the “effect of freezing and thawing the peptide on its activity in the adhesion assay” value ([1]; PMNs from donors 100 and 272) of the same sequence?
**A.** does not significantly effect its activity

**Q.** What about the “Percent Change in PMN Adhesion to ECs activated with IL1” value (from here on “Percent Change … with IL1”) ([2]; 10^-7 M, donor 155*, peptide 1 wk 4°) of the same sequence?
**A.** +59%

**Q.** What about the “Percent Change … with IL1” value ([2]; 10^-7 M, donor 272*, peptide 1 wk 4°) of the same sequence?
**A.** +2%

**Q.** What about the “Percent Change … with IL1” value ([2]; 10^-8 M, donor 108*, peptide frozen) of the same sequence?
**A.** +21%

**Q.** What about the “Percent Change … with IL1” value ([2]; 10^-8 M, donor 489*, peptide frozen) of the same sequence?
**A.** -3%
